Literature values, collected in patent publication US20240287072A1, “SOLID STATE FORMS OF LUMATEPERONE SALTS AND PROCESSES FOR PREPARATION OF LUMATEPERONE AND SALTS THEREOF” (TEVA PHARMACEUTICALS INTERNATIONAL GMBH, priority 2018, published 2024).
Structures can show the parent of a compound that is named as a salt.

Tests used:
[1] = hydrochloride salt disclosed in U.S. Pat. No. 7,183,282
[2] = hydrochloride salt disclosed in U.S. Pat. No. 7,183,282; remark: listed apart in the source
[3] = free base form, oily, sticky solid

CN1CCN2c3c(cccc31)[C@@H]1CN(CCCC(=O)c3ccc(F)cc3)CC[C@@H]12 [hydrochloride salt of lumateperone]
hygroscopicity [1]: hygroscopic
stability [2]: poor

CN1CCN2c3c(cccc31)[C@@H]1CN(CCCC(=O)c3ccc(F)cc3)CC[C@@H]12 [lumateperone, 1-(4-fluorophenyl)-4-((6bR, 10aS)-3-methyl-2,3,6b,9,10,10a-hexahydro-1H-pyrido[3′,4′:4,5]pyrrolo[1,2,3-de]quinoxalin-8(7H)-yl)butan-1-one]
solubility [3]: poor
